According to patent US20090318354A1, “Use of at least one isoform of progesterone receptor membrane component 1 (PGRMC1)” (PROTEOSYS AG, priority 2006, published 2009):

Columns and labels:
MCF7 breast cancer cells = experiment: ATP-TCA cell viability assay in MCF7 cells and MCF7 cells stably expressing PGRMC1 WT or mutants; format: cell-based, human
AKT = details: S56A/S180A and Y179F/S180A mutants, H2O2 even at 1 mM
From the text: Antibodies employed were specific for phosphorylated AKT (top), for the polypeptide backbone of AKT (middle), or for the HA-tag on the respective exogenously expressed PGRMC1 constructs.

[1] = system: breast cancer exhibiting a positive ER status; details: patients suffering from breast cancer exhibiting a positive ER status; cited from earlier work

OO [H2O2, hydrogen peroxide]
cell viability (MCF7 breast cancer cells; MCF7 cells, 50 μM H2O2, RPMI with 10% FCS): reduced cell viability | phosphorylation of AKT upon H2O2 treatment (AKT): neither of the mutants that survived H2O2 treatment in FIG. 10B exhibited phosphorylation of AKT

CC(=O)[C@H]1CC[C@H]2[C@@H]3CCC4=CC(=O)CC[C@]4(C)[C@H]3CC[C@]12C [Progesterone, progesterone]
proliferative effect relative to other cells (MCF7 breast cancer cells; PGRMC1-WT cell line, progesterone 10^-7 M, 5 days, charcoal-treated FCS): marginal proliferative effect | viability of cells (MCF7 breast cancer cells; cells generally, progesterone 10^-7 M, charcoal-treated FCS, 5 days): not affected greatly

CC[C@H](C)C(=O)O[C@H]1C[C@@H](C)C=C2C=C[C@H](C)[C@H](CC[C@@H]3C[C@@H](O)CC(=O)O3)[C@H]21 [lovastatin]
viability (MCF7 breast cancer cells; PGRMC1 Y179F/S180A mutant, lower concentrations of lovastatin): improved viability | viability (MCF7 breast cancer cells; all cell lines, high levels of lovastatin, 2 days, charcoal-treated FCS): reduced

CC/C(=C(\c1ccccc1)c1ccc(OCCN(C)C)cc1)c1ccccc1 [tamoxifen]
resistance of clone to Tamoxifen (MCF7 breast cancer cells; clone S56A/S180A, comparable to wild-type PGRMC1 control or native MCF7 cells): exhibited resistance | susceptibility of clone to Tamoxifen (MCF7 breast cancer cells; clone S180A): highly susceptible | viability of cells (MCF7 breast cancer cells; tamoxifen 10^-8 M, charcoal-treated FCS, 5 days): reduced viability | cases in which treatment is effective [1]: approximately 50%

estrogen
viability of cells (MCF7 breast cancer cells; estrogen 10^-9 M added to RPMI with charcoal-treated FCS, 5 days): improved | rescue of impaired viability in the presence of tamoxifen (MCF7 breast cancer cells; estrogen 10^-9 M plus tamoxifen 10^-8 M): could not rescue

methyl-β-cyclodextrin
cell viability relative to MCF7 control cells (MCF7 breast cancer cells; cells expressing all PGRMC1 mutants except S180A, 5 mM methyl-beta-cyclodextrin, 2 h, charcoal-treated FCS): drastically reduced cell viability
